Laboratory results taken from patent publication US5858684A, “Method of screening calcium receptor-active molecules” (priority 1995, dated 1999).
Read-outs that look alike come from different tables or passages of the source.

Key:
[1] = net positive charge; assay type: physicochemical
[2] = target: T1, calcium receptor expressed from human parathyroid cell mRNA in Xenopus oocytes (Homo sapiens, UniProt P41180); assay: response of Xenopus oocytes injected with human parathyroid mRNA; assay type: cell-based
T1 sequence (P41180 20-1078): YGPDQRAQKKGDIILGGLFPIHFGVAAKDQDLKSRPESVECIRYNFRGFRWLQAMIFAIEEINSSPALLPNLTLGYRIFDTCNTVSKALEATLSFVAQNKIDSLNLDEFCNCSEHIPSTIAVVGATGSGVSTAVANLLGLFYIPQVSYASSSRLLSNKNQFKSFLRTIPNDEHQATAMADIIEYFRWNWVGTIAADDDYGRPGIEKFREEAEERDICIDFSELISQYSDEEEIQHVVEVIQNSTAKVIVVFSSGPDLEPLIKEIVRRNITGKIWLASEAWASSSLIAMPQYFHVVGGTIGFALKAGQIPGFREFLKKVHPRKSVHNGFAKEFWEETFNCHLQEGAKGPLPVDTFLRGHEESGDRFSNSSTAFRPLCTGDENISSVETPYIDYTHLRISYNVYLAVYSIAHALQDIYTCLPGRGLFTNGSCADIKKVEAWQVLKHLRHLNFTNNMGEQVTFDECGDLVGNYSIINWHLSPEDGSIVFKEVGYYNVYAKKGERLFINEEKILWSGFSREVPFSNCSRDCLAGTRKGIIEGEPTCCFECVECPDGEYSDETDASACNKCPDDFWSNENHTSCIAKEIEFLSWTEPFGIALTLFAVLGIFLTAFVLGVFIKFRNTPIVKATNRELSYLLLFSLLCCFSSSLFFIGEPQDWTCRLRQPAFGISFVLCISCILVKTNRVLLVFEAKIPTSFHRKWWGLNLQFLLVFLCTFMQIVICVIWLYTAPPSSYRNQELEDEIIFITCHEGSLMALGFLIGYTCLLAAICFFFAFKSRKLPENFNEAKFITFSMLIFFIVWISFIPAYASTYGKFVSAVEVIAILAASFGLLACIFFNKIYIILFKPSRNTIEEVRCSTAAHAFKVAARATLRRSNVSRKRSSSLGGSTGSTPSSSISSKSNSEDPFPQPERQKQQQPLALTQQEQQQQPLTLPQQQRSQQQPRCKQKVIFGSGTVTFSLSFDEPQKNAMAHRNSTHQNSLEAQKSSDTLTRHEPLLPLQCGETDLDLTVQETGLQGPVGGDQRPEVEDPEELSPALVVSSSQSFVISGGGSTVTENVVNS
Experimental: Oocytes were injected with poly(A)^+ -enriched mRNA from human parathyroid tissue (hyperplastic glands from a case of secondary HPT).
Glass capillary tubes (1 mm diameter) were pulled to a fine tip and manually broken to achieve a tip diameter of about 15 μmeters. A droplet of mRNA (1 ng/nl in diethylpyrocarbonate (DEPC)-treated water) was placed onto […]® and drawn into the capillary tube by suction. The capillary tube was then connected to a picospritzer (WPI Instruments) and the volume of the air-pulsed droplets adjusted to deliver 50 ng of mRNA (typically 50 nl). A 35-mm culture dish with a patch of nylon stocking fixed to the bottom was used to secure the oocytes during injection of mRNA into the vegetal pole. The injected oocytes were placed into a 35-mm culture dish containing MBS, 100 μg/ml penicillin and 100 μg/ml streptomycin and incubated at 18° C. for 3 days.
Following incubation, an oocyte was placed into a 100-μl plastic chamber and superfused with MBS at a flow rate of 0.5 ml/min using a peristaltic pump. Test molecules or inorganic polycations were added by rapidly moving the tubing into different buffers. Recording and current-passing electrodes were constructed from thin-wall capillary tubing pulled to a resistance of 1-3 Mohms and filled with 3M KCl. […] Currents were recorded directly onto a strip chart recorder.
Using this screen allows one to test for an action directly on the calcium receptor. Oocytes expressing the calcium receptor also responded to several molecules active on intact parathyroid cells when screened as follows. […] This offers rather compelling evidence showing that these molecules act on the calcium receptor or on some other protein intimately associated with its function.

[3] = tested on: PTH secretion from bovine parathyroid cells; assay: PTH secretion from bovine parathyroid cells; assay type: cell-based; settings: bovine parathyroid cells
Experimental: PTH secretion was measured by first suspending cells in PCB containing 0.5 mM CaCl2 and 0.1% BSA.

[4] = target: T2, human parathyroid cells (calcium receptor) (Homo sapiens, UniProt P41180); assay type: cell-based
T2 sequence (P41180 20-1078): T1 sequence (P41180 20-1078)
Experimental: Human parathyroid glands, were obtained from patients undergoing surgical removal of parathyroid tissue for primary or uremic hyperparathyroidism (uremic HPT), and were treated similarly to bovine tissue.
The cells were then pelleted, resuspended in the same buffer, but lacking the ester, and incubated a further 15 minutes at 37° C. The cells were subsequently washed twice with PCB containing 0.5 mM CaCl2 and 0.5% BSA and maintained at room temperature (about 20° C.). Immediately before use, the cells were diluted five-fold with prewarmed 0.5 mM CaCl2 -PCB to obtain a final BSA concentration of 0.1%. The concentration of cells in the cuvette used for fluorescence recording was 1-2×10^6 /ml.
The fluorescence of indicator-loaded cells was measured at 37° C. in a spectrofluorimeter (Biomedical Instrumentation Group, University of Pennsylvania, Philadelphia, Pa.) equipped with a thermostated cuvette holder and magnetic stirrer using excitation and emission wavelengths of 340 and 510 nm, respectively. […] Leakage of dye is dependent on temperature and most occurs within the first 2 minutes after warming the cells in the cuvette. Dye leakage increases only very slowly thereafter. To correct the calibration for dye leakage, cells were placed in the cuvette and stirred at 37° C. for 2-3 minutes. The cell suspension was then removed, the cells pelleted, and the supernatant returned to a clean cuvette. […] This estimate was subtracted from the apparent Fmin.

[5] = serum ionized Ca2+ in 5/6 nephrectomized rats (secondary hyperparathyroidism model); assay type: in vivo, rat; settings: 10 mg/kg i.p.; within 2 hours
Excerpt: An accepted and widely used animal model of secondary hyperparathyroidism arising from chronic renal failure is the 5/6 nephrectomized rat. Animals receiving such surgery become initially hypocalcemic and, to maintain serum Ca^2+ levels, there is a compensatory hyperplasia of the parathyro:Ld glands and elevated levels of circulating PTH. Male Spracue-Dawley rats (250 g) received a 5/6 nephrectomy and were allowed to recover for 2 weeks. At this time they were normocalcemic (due to elevated levels of serum PTH).

[6] = tested on: human parathyroid calcium receptor (HuPCaR 5.2) in HEK293 cells; assay: intracellular calcium in HEK293 cells transfected with HuPCaR 5.2; assay type: cell-based; settings: Ca2+ 10 mM; Mg2+ 20 mM
Experimental: Cells obtained from the pool of hygromycin selected HEK293 cells transfected with Cep4B containing the HuPCaR 5.2 insert were plated on collagen coated Aklar squares which had been placed into individual wells of 12-well tissue culture plates. Two to six days later, medium was removed and the cells washed with balanced salt solution and 1 ml of buffer containing 1 μM fura2-AM, 1 mM CaCl2 and 0.1% BSA and 1 mM CaCl2. Measurements of fluorescence in response to calcium receptor agonists were performed at 37° C. in a spectrofluorimeter using excitation and emission wavelengths of 340 and 510 nm, respectively. For signal calibration, Fmax was determined after addition of ionomycin (40 μM) and the apparent Fmin was determined by addition of 0.3M EGTA, 2.5M Tris-HCl; pH 10.

[7] = serum parathyroid hormone in a human; assay type: in vivo; settings: single oral doses 20-400 mg
Excerpt: (§1) A range of single oral doses was used to assess safety, tolerance, and changes in primary hyperparathyroidism markers (e.g., plasma concentrations of parathyroid hormone and ionized serum calcium) and of serum calcitonin.

[8] = serum ionized calcium in a human; assay type: in vivo; settings: higher oral doses
Excerpt: as §1

[9] = hypocalcemic response in thyroidectomized rats; assay type: in vivo, rat; settings: 3 to 100 mg/kg p.o.
Excerpt: In subsequent studies, rats received a thyroidectomy (parathyroid glands intact). This surgical procedure effectively removed the C-cells secreting calcitonin and therefore enabled the relative contributions of PTH and calcitonin to the hypocalcemic effect of this compound to be determined. […] The only difference was that the rate of onset of the hypocalcemic response was somewhat delayed in thyroidectomized animals. […] Stimulatory effects of this compound on calcitonin secretion increases the rate of onset, but not the extent, of hypocalcemia.

## NC[C@@H]1O[C@H](O[C@H]2[C@@H](O)[C@H](O[C@@H]3[C@@H](O)[C@H](N)C[C@H](N)[C@H]3O[C@H]3O[C@H](CN)[C@@H](O)[C@H](O)[C@H]3N)O[C@@H]2CO)[C@H](N)[C@@H](O)[C@@H]1O [Neomycin]
[1]
  Net (+) Charge (Table 1): +6
  net positive charge: +6
[1]; pH 7.3
  net positive charge: +6
[2]; 10 mM, water-injected control oocytes
  response of water-injected oocytes: failed to cause any change in the current
[2]; human parathyroid mRNA
  concentration effective in oocytes: 100 µM
[2]; human parathyroid mRNA, listed as Neomycin B
  response of oocytes expressing calcium receptor: evoked oscillatory increases
[2]; human parathyroid mRNA, listed as neomycin B
  response of oocytes expressing calcium receptor: evokes oscillating increases
[3]
  inhibition of PTH secretion: inhibited PTH secretion to the same extent
[4]; 20 μM
  increase in [Ca2+]i (words): evoked a large increase
[4]; human adenomatous tissue, 0.5 mM extracellular Ca2+, neomycin B 10 μM in FIG. 19, listed as Neomycin B
  increase in [Ca2+]i (words): not only a transient, but additionally a steady-state increase
[4]; human adenomatous tissue, 0.5 mM extracellular Ca2+, neomycin B 10 μM in FIG. 19, listed as neomycin B
  increase in [Ca2+]i (words): transient and sustained increases

## COc1cccc([C@@H](C)NCCCc2ccccc2)c1 (single isomer, unassigned) [NPS R-467]
[5]
  serum ionized Ca2+ as % of controls: 83 % of controls
[6]
  increase in intracellular calcium: Robust increases

## COc1cccc([C@@H](C)NCCCc2ccccc2Cl)c1 [NPS R-568, (R)-(+)-N-[3-(2-chlorophenyl)propyl]-amethyl-α-3-methoxybenzylamine]
[7]
  plasma PTH in human: transient dose-dependent decrease in plasma PTH concentration
[8]
  serum ionized calcium in human: decrease in serum ionized calcium concentration
[9]
  hypocalcemic response in thyroidectomized vs sham-operated animals: equal in magnitude to that produced in sham-operated animals
